Data: patent US20250326713A1, “INHIBITORS OF MsbA AS ANTIBIOTICS, PHARMACEUTICAL COMPOSITIONS, AND USES THEREOF” (priority 2022, published 2025)
Converted amounts (≈) assume the structure as drawn.

These compounds were tested on various strains of bacteria (assay: Antimicrobial potency: bacterial growth inhibition by OD600 (Antibacterial assay 1, MITC95)). Conditions: Acinetobacter baumannii, 20 h, lowest concentration giving >95% growth inhibition, CAMHB, 18-22 h.
Format: cell-based, A. baumannii
Procedure: The concentrations of compounds required to inhibit the growth of various strains of bacteria were determined in an assay that assessed bacterial growth by measuring optical density at 600 nm (OD600). Test articles were dissolved in 100% DMSO and serially diluted two-fold from their maximal concentration in 100% DMSO. Forty-nine μl of bacterial inoculum (at approx. 2×10^5 cfu/mL in CAMHB) were put into wells of an assay plate. One μl of compound or DMSO was transferred from the source plate to the assay plate. The completed assay plates were then incubated at 35+2degC for 18-22 h. Bacterial growth was measured by reading OD600 on a spectrophotometer. Data analysis calculates the lowest concentration of compound which results in >95% growth inhibition (minimum inhibitory threshold concentration 95%, MITC95).

Row | MIC | SMILES
1 | 0.00611 µM (≈ 0.00532 µg/mL) | O=C(O)c1cc(OC[C@H]2C[C@@H](NCc3ccc(NS(=O)(=O)N4CCOC(c5ccc(F)cc5)C4)c(C(=O)O)c3)C2)ccc1NS(=O)(=O)c1cnc(-c2ccc(F)cc2)s1 (stereo partly drawn) [Compound 92]
2 | 0.00611 µM (≈ 0.00517 µg/mL) | O=C(O)c1cc(CN[C@H]2C[C@@H](COc3ccc(NS(=O)(=O)c4cnc(-c5ccc(Cl)cc5)s4)c(C(=O)O)c3)C2)ccc1NS(=O)(=O)CCc1ccc(Cl)cc1 [Compound 93]
3 | 0.0086 µM (≈ 0.00727 µg/mL) | O=C(O)c1cc(CN[C@H]2C[C@@H](COc3ccc(NS(=O)(=O)c4ccc(-c5ccc(Cl)cc5)s4)c(C(=O)O)c3)C2)ccc1NS(=O)(=O)CCc1ccc(Cl)cc1 [Compound 94]
4 | 0.0122 µM (≈ 0.0106 µg/mL) | O=C(O)c1cc(CN[C@H]2C[C@@H](COc3ccc(NS(=O)(=O)N4CCOC(c5ccc(F)cc5)C4)c(C(=O)O)c3)C2)ccc1NS(=O)(=O)N1CCOC(c2ccc(F)cc2)C1 (stereo partly drawn) [Compound 95]
5 | 0.0122 µM (≈ 0.0106 µg/mL) | O=C(O)c1cc(OC[C@H]2C[C@@H](NCc3ccc(NS(=O)(=O)N4CC(Oc5ccc(F)cc5)C4)c(C(=O)O)c3)C2)ccc1NS(=O)(=O)c1cnc(-c2ccc(Cl)cc2)s1 [Compound 96]
6 | 0.0978 µM (≈ 0.084 µg/mL) | O=C(O)c1cc(CN2CC(Oc3ccc(NS(=O)(=O)c4ccc(-c5ccc(Cl)cc5)cc4)c(C(=O)O)c3)C2)ccc1NS(=O)(=O)c1ccc(-c2ccc(Cl)cc2)cc1 [Compound 97, 5-((1-(3-carboxy-4-((4′-chloro-(1,l′-biphenyl))-4-sulfonamido)benzyl)azetidin-3-yl)oxy)-2-((4′-chloro-(1,l′-biphenyl))-4-sulfonamido)benzoic acid]
7 | 0.0692 µM (≈ 0.0572 µg/mL) | O=C(O)c1cc(CN2CC(Oc3ccc(NS(=O)(=O)c4ccc(-c5ccc(F)cc5)cc4)c(C(=O)O)c3)C2)ccc1NS(=O)(=O)c1ccc(-c2ccc(F)cc2)cc1 [Compound 98]
8 | 0.0245 µM (≈ 0.0195 µg/mL) | O=C(O)c1cc(CN2CC(Oc3ccc(NS(=O)(=O)c4ccc(-c5ccc(F)cc5)cc4)c(C(=O)O)c3)C2)ccc1NS(=O)(=O)CCc1ccc(Cl)cc1 [Compound 99, 5-((1-(3-carboxy-4-((2-(4-chlorophenyl)ethyl)sulfonamido)benzyl)azetidin-3-yl)oxy)-2-((4′-fluoro-[1, l′-biphenyl])-4-sulfonamido)benzoic acid]
9 | 0.0489 µM (≈ 0.0399 µg/mL) | O=C(O)c1cc(CN2CC(Oc3ccc(NS(=O)(=O)c4ccc(-c5ccc(F)cc5)cc4)c(C(=O)O)c3)C2)ccc1NS(=O)(=O)c1cnn(-c2ccc(F)cc2)c1 [Compound 100]
10 | 0.0245 µM (≈ 0.0199 µg/mL) | O=C(O)c1cc(CN2CC(Oc3ccc(NS(=O)(=O)c4ccc(-c5cccc(Cl)c5)cc4)c(C(=O)O)c3)C2)ccc1NS(=O)(=O)CCc1ccc(Cl)cc1 [Compound 101]
11 | 0.0489 µM (≈ 0.038 µg/mL) | O=C(O)c1cc(CN2CC(Oc3ccc(NS(=O)(=O)c4ccc(-c5ccc(F)cc5)cc4)c(C(=O)O)c3)C2)ccc1NS(=O)(=O)CCc1ccc(F)cc1 [Compound 102]
12 | 0.0245 µM (≈ 0.0199 µg/mL) | O=C(O)c1cc(CN2CC(Oc3ccc(NS(=O)(=O)c4ccc(-c5ccc(Cl)cc5)cc4)c(C(=O)O)c3)C2)ccc1NS(=O)(=O)c1ccc(OC(F)F)cc1 [Compound 103]
13 | 0.0346 µM (≈ 0.0288 µg/mL) | O=C(O)c1cc(CN2CC(Oc3ccc(NS(=O)(=O)c4ccc(-c5ccc(Cl)cc5)cc4)c(C(=O)O)c3)C2)ccc1NS(=O)(=O)c1cnn(-c2ccc(F)cc2)c1 [Compound 104]
14 | 0.0245 µM (≈ 0.0206 µg/mL) | O=C(O)c1cc(CN2CC(Oc3ccc(NS(=O)(=O)c4ccc(-c5ccc(Cl)cc5)cc4)c(C(=O)O)c3)C2)ccc1NS(=O)(=O)c1ccc(Oc2ccccc2)nc1 [Compound 105]
15 | 0.0489 µM (≈ 0.0405 µg/mL) | Cn1nc(-c2ccccc2)cc1S(=O)(=O)Nc1ccc(CN2CC(Oc3ccc(NS(=O)(=O)c4ccc(-c5ccc(Cl)cc5)cc4)c(C(=O)O)c3)C2)cc1C(=O)O [Compound 106]
16 | 0.0489 µM (≈ 0.0415 µg/mL) | O=C(O)c1cc(OC2CN(Cc3ccc(NS(=O)(=O)c4ccc(-c5ccc(Cl)cc5)s4)c(C(=O)O)c3)C2)ccc1NS(=O)(=O)c1ccc(-c2ccc(F)cc2)cc1 [Compound 107]
17 | 0.0489 µM (≈ 0.0385 µg/mL) | CCCCc1ccc(S(=O)(=O)Nc2ccc(CN3CC(Oc4ccc(NS(=O)(=O)c5ccc(-c6ccc(F)cc6)cc5)c(C(=O)O)c4)C3)cc2C(=O)O)cc1 [Compound 108]
18 | 0.246 µM (≈ 0.204 µg/mL) | O=C(O)c1cc(OC2CN(Cc3ccc(NS(=O)(=O)c4cnn(-c5ccc(F)cc5)c4)c(-c4nn[nH]n4)c3)C2)ccc1NS(=O)(=O)c1cnn(-c2ccc(F)cc2)c1 [Compound 114, 2-((1-(4-fluorophenyl)-1H-pyrazole)-4-sulfonamido)-5-((1-(4-((1-(4-fluorophenyl)-1H-pyrazole)-4-sulfonamido)-3-(2H-tetrazol-5-yl)benzyl)azetidin-3-yl)oxy)benzoic acid]
19 | 0.277 µM (≈ 0.223 µg/mL) | O=C(O)c1cc(CN2CC(Oc3ccc(NS(=O)(=O)c4cnn(-c5ccc(F)cc5)c4)c(C(=O)O)c3)C2)ccc1NS(=O)(=O)c1cnn(-c2ccc(F)cc2)c1 [Compound 115, 5-((1-(3-carboxy-4-(1-(4-fluorophenyl)-1H-pyrazole-4-sulfonamido)benzyl)azetidin-3-yl)oxy)-2-(1-(4-fluorophenyl)-1H-pyrazole-4-sulfonamido)benzoic acid]
20 | 0.0978 µM (≈ 0.079 µg/mL) | O=C(O)c1cc(CN2CC(Oc3ccc(NS(=O)(=O)c4coc(-c5ccc(F)cc5)n4)c(C(=O)O)c3)C2)ccc1NS(=O)(=O)c1coc(-c2ccc(F)cc2)n1 [Compound 116]
21 | 0.0489 µM (≈ 0.041 µg/mL) | O=C(O)c1cc(CN2CC(Oc3ccc(NS(=O)(=O)c4cnn(-c5ccc(Cl)cc5)c4)c(C(=O)O)c3)C2)ccc1NS(=O)(=O)c1cnn(-c2ccc(Cl)cc2)c1 [Compound 117]
22 | 0.0245 µM (≈ 0.0198 µg/mL) | O=C(O)c1cc(CN2CC(Oc3ccc(NS(=O)(=O)c4cnn(-c5ccc(F)cc5)n4)c(C(=O)O)c3)C2)ccc1NS(=O)(=O)c1cnn(-c2ccc(F)cc2)n1 [Compound 118]
23 | 0.0489 µM (≈ 0.0395 µg/mL) | O=C(O)c1cc(CN2CC(Oc3ccc(NS(=O)(=O)c4cnc(-c5ccc(F)cc5)o4)c(C(=O)O)c3)C2)ccc1NS(=O)(=O)c1cnc(-c2ccc(F)cc2)o1 [Compound 120]
24 | 0.277 µM (≈ 0.233 µg/mL) | O=C(O)c1cc(CN2CC(Oc3ccc(NS(=O)(=O)c4cnn(-c5ccc(Cl)cn5)c4)c(C(=O)O)c3)C2)ccc1NS(=O)(=O)c1cnn(-c2ccc(Cl)cn2)c1 [Compound 121]
